Results on 19 molecules are retold here after patent publication US6255327A, “Diphenyl-substituted heterocycles, processes for preparing them and their use as pharmaceutical compositions” (Boehringer Ingelheim Pharma KG, priority 1998, dated 2001).

Each structure is given as a SMILES string.

Data set [1] relates to AMPA receptor. The data set can be described thus: Inhibition of the cainate-induced signal at the AMPA receptor, electrophysiology on neuronal cells (patch-clamp method). The data set is classed as cell-based. The settings on record: test concentration of 100 μM. As to the method: The testing was carried out at a test concentration of 100 μM.
(In patch-clamp work, channel activity is measured electrically.)

For data set [2], the target named is "Na^+ channel site 2" binding site. The data set can be described thus: Affinity to the "Na^+ channel site 2" binding site. The note with it: typically at a test concentration of 10 μM. Here is the method:
The testing was typically carried out at a test concentration of 10 μM.

In data set [3] the test system is neurones in mouse brains. The settings on record: after systemic administration; cited from earlier work.

With `c1ccc(-c2ncn(-c3ccccc3)n2)cc1` [Example 1, 1,3-Diphenyl-1,2,4-triazole], the “AMPA Inh. [%] (inhibition of the cainate-induced signal at the AMPA receptor)” value in data set [1] is 56%.
As to `COc1ccccc1-n1cnc(-c2ccccc2)n1` [Example 2, 1-(2-methoxyphenyl)-3-phenyl-1,2,4-triazole], the “AMPA Inh. [%] (inhibition of the cainate-induced signal at the AMPA receptor)” value in data set [1] came to 96%.
On to `CN(C)CCOc1ccccc1-n1cnc(-c2ccccc2)n1` [Example 3, 1-{2-[2(N,N-Dimethylamino)ethyl]oxy-phenyl}-3-phenyl-1,2,4-triazole], for which the “AMPA Inh. [%] (inhibition of the cainate-induced signal at the AMPA receptor)” value in data set [1] is 74%. Besides, the Ki (commonly a measure of affinity in units of concentration, obtained from inhibition or displacement) in data set [2] is 3700 nM.
In the case of `CN(C)CCOc1ccccc1-c1ncn(-c2ccccc2)n1` [Example 5, 3-{2-[2(N,N-Dimethylamino)ethyl]oxy-phenyl}-1-phenyl-1,2,4-triazole], the “AMPA Inh. [%] (inhibition of the cainate-induced signal at the AMPA receptor)” value in data set [1] stood at 76%. For the same molecule, in data set [2], the Ki amounted to 700 nM.
For `CN(C)CCOc1ccccc1-c1n[nH]c(-c2ccccc2)n1` [Example 7, 3-{2-[2(N,N-Dimethylamino)ethyl]oxy-phenyl}-5-phenyl-1,2,4-triazole] the same measures were 39% and 1200 nM.
The corresponding values for `CN(C)CCOc1ccccc1-c1coc(-c2ccccc2)n1` [Example 8, 4-{2-[2(N,N-dimethylamino)ethyl]oxy-phenyl}-2-phenyl-1,3-oxazole] are 77% and 4600 nM.
As for `CN(C)CCOc1ccccc1-c1c[nH]c(-c2ccccc2)n1` [Example 9, 4-{2-[2(N,N-dimethylamino)ethyl]oxy-phenyl}-2-phenyl-imidazole], the Ki in data set [2] came out at 1800 nM.
In the case of `CN(C)CCOc1ccccc1-c1cnc(-c2ccccc2)o1` [Example 10, 5-{2-[2(N,N-dimethylamino)ethyl]oxy-phenyl}-2-phenyl-1,3-oxazole], the “AMPA Inh. [%] (inhibition of the cainate-induced signal at the AMPA receptor)” value in data set [1] is recorded as 98%. The Ki in data set [2] is 990 nM.
`CN(C)CCOc1ccccc1-c1nn(-c2ccccc2)c(=O)o1` [Example 12, 5-{2-[2(N,N-dimethylamino)ethyl]oxy-phenyl}-3-phenyl-1,3,4-oxadiazol-2-one] registered a Ki in data set [2] of 990 nM.
The same measure, in the same setting: in the case of `COc1ccccc1-c1c[nH]c(-c2ccccc2)c1` [Example 13, 3-(2-methoxyphenyl)-5-phenyl-1H-pyrrole] it was 1100 nM.
As for `COc1ccccc1-c1cnn(-c2ccccc2)c1` [Example 17, 4-(2-methoxyphenyl)-1-phenyl-pyrazole], in data set [1], the “AMPA Inh. [%] (inhibition of the cainate-induced signal at the AMPA receptor)” value is reported as 53%. Further, the affinity in data set [2], expressed as Ki, was 390 nM.
Take `CN(C)CCOc1ccccc1N1C(=O)NC(c2ccccc2)C1=O` (stereo not shown) [Example 19, 3-{2-[2(N,N-dimethylamino)ethyl]oxy-phenyl}-5-phenyl-imidazolidin-2,4-dione]: in data set [2], the Ki was 550 nM.
On the same count and under the same terms, in the case of `CN(C)CCOc1ccccc1-n1cc(-c2ccccc2)[nH]c1=O` [Example 20, 1-{2-[2(N,N-dimethylamino)ethyl]oxy-phenyl}-4-phenyl-1,3-dihydro-imidazole-2-one] it was 360 nM; in that of `CN(C)CCOc1ccccc1C1NC(=O)N(c2ccccc2)C1=O` (stereo not shown) [Example 21, 5-{2-[2(N,N-dimethylamino)ethyl]oxy-phenyl}-3-phenyl-imidazolidin-2,4-dione], 710 nM; in that of `CN(C)CCOc1ccccc1-c1cn(-c2ccccc2)c(=O)[nH]1` [Example 22, 4-{2-[2(N,N-dimethylamino)ethyl]oxy-phenyl}-1-phenyl-1,3-dihydro-imidazol-2-one], 1300 nM.
Same read-out and setting: in the case of `CN(C)CCOc1ccccc1-c1nc(-c2ccccc2)nn1C` [Example 23, 5-{2-[2(N,N-dimethylamino)-ethyl]oxy-phenyl}-1-methyl-3-phenyl-1,2,4-triazole] it was 1400 nM.
Same read-out and setting: the result for `CN(C)CCOc1ccccc1-c1ccc(-c2ccccc2)[nH]1` [Example 24, 2-{2-[2(N,N-dimethylamino)-ethyl]oxy-phenyl}-5-phenyl-pyrrole] reads 460 nM; that for `CN(C)CCOc1ccccc1-c1nc(-c2ccccc2)c[nH]1` [Example 25, 2-{2-[2(N,N-dimethylamino)-ethyl]-oxy-phenyl}-4-phenyl-imidazole], 1300 nM.
For `N[C@@H](CCC(=O)O)C(=O)O` [glutamate], the “destruction of neurones in mouse brains (in words)” value in data set [3] is reported as “neurones are destroyed in mouse brains”.
